Experimental data from US8716475B2, “2-aminopyrimidine modulators of the histamine H4 receptor” (Janssen Pharmaceutica NV, priority 2007, dated 2014).

What follows are compounds tested against T1, human H4 receptor (Homo sapiens, UniProt Q9H3N8) (assay: Binding Assay on Recombinant Human Histamine H4 Receptor). Conditions: Table 1; [3H] histamine competition binding, membranes of SK-N-MC cells transfected with human H4 receptor; average of results.
T1 construct: expressed in transfected cells
Procedure: Binding Assay on Recombinant Human Histamine H4 Receptor.
Cell pellets from SK-N-MC cells stably or transiently transfected with human H4 receptor were used for the binding assays. Cell pellets were homogenized in 50 mM Tris/5 mM EDTA buffer and supernatants from an 800g spin were collected and recentrifuged at 30,000g for 30 min. Pellets were rehomogenized in 50 mM Tris/5 mM EDTA buffer. […] Compounds were tested in free base, hydrochloride salt, or trifluoroacetic acid form. Nonspecific binding was defined with 100 μM cold histamine. […] Membranes were harvested by rapid filtration using the 96 well Brandel system or a cell harvester using a Whatman GF/C filter or filter plates treated with 0.5% polyethylenimine (PEI), and washed 4 times with ice-cold 50 mM Tris/5 mM EDTA buffer. Filters were then dried, mixed with scintillant and radioactive counts were determined. […] Data marked with an asterisk (*) were obtained by the cell harvester method. Where activity is shown as greater than (>) a particular value, the value is the highest concentration tested.

T1 sequence (Q9H3N8 whole entry): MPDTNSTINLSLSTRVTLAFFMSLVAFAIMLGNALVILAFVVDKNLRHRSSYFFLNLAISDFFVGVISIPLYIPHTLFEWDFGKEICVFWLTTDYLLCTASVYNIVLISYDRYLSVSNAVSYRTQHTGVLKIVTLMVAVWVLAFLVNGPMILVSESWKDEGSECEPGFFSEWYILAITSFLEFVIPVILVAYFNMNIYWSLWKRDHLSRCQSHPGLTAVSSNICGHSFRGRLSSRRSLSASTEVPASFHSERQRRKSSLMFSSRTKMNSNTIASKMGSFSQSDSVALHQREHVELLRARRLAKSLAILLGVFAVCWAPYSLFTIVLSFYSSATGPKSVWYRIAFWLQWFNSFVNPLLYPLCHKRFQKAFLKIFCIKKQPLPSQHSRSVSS

Compound	Ki [nM]
4-(4-piperazin-1-yl)-5,6,7,8-tetrahydro-quinazolin-2-ylamine [Example 67]	17
CN1CCN(c2cc(Cc3ccccc3)nc(N)n2)CC1 [Example 63, 4-Benzyl-6-(4-methyl-piperazin-1-yl)-pyrimidin-2-ylamine]	21
CNC1CN(c2cc(C3CCCC3)nc(N)n2)CC1O (stereo not drawn) [Example 5, trans-1-(2-Amino-6-cyclopentyl-pyrimidin-4-yl)-4-methylamino-pyrrolidin-3-ol]	30
Nc1nc(C2CCC2)cc(N2C[C@H]3CNC[C@H]3C2)n1 [Example 48, 4-Cyclobutyl-6-(cis-hexahydro-pyrrolo[3,4-c]pyrrol-2-yl)-pyrimidin-2-ylamine]	328
CC(C)c1cc(N2C[C@H]3C[C@@H]2CN3)nc(N)n1 [Example 15, (R,R)-4-(2,5-Diaza-bicyclo[2.2.1]hept-2-yl)-6-isopropyl-pyrimidin-2-ylamine]	692
Nc1nc(C2CCOCC2)cc(N2C[C@H]3CCCN[C@H]3C2)n1 [Example 61, (R,R)-4-(Octahydro-pyrrolo[3,4-b]pyridin-6-yl)-6-(tetrahydro-pyran-4-yl)-pyrimidin-2-ylamine]	24
CC(C)c1cc(N2CCNCC2)nc(N)n1 [Example 8, 4-Isopropyl-6-piperazin-1-yl-pyrimidin-2-ylamine]	3
CN1CCN(c2cc(C3CCOC3)nc(N)n2)CC1 (centres unmarked) [Example 57, 4-(4-Methyl-piperazin-1-yl)-6-(tetrahydro-furan-3-yl)-pyrimidin-2-ylamine]	27
CCc1cc(N2C[C@H]3CCN[C@H]3C2)nc(N)n1 [Example 37, (R,R)-(4-Ethyl-6-hexahydro-pyrrolo[3,4-b]pyrrol-5-yl)-pyrimidin-2-ylamine]	27
Nc1nc(C2CCCC2)cc(N2CCNCC2)n1 [Example 1, 4-Cyclopentyl-6-piperazin-1-yl-pyrimidin-2-ylamine]	1
CC(C)c1cc(N2CC3CCCNC3C2)nc(N)n1 (stereo not drawn) [Example 19, 4-Isopropyl-6-(cis-octahydro-pyrrolo[3,4-b]pyridin-6-yl)-pyrimidin-2-ylamine]	8
CC(C)c1cc(N2C[C@@H]3C[C@H]2CN3)nc(N)n1 [Example 14, (S,S)-4-(2,5-Diaza-bicyclo[2.2.1]hept-2-yl)-6-isopropyl-pyrimidin-2-ylamine]	673
CC(C)c1cc(N2CCC[C@@H](N)C2)nc(N)n1 [Example 9, (R)-4-(3-Amino-piperidin-1-yl)-6-isopropyl-pyrimidin-2-ylamine]	820
CN[C@@H]1CCN(c2cc(C3CC3)nc(N)n2)C1 [Example 41, (R)-(4-Cyclopropyl-6-3-methylamino-pyrrolidin-1-yl)-pyrimidin-2-ylamine]	28
Cc1nc(N)nc(N2CC[C@@H](N)C2)c1C [Example 27, (R)-4-(3-Amino-pyrrolidin-1-yl)-5,6-dimethyl-pyrimidin-2-ylamine]	> 10000

Same assay, conditions: Table 2, data marked with an asterisk (*): obtained by the cell harvester method; [3H] histamine competition binding, SK-N-MC membranes

Compound	Ki [nM]
CC(C)(C)c1cc(N2CC(N)C2)nc(N)n1 [Example 133, 4-(3-Amino-azetidin-1-yl)-6-tert-butyl-pyrimidin-2-ylamine]	238
COc1c(C2CCCC2)nc(N)nc1N(C)CCN [Example 115, N^4-(2-Amino-ethyl)-6-cyclopentyl-5-methoxy-N^4-methyl-pyrimidine-2,4-diamine]	1430

Same assay, conditions: Table 2; [3H] histamine competition binding, membranes of SK-N-MC cells transfected with human H4 receptor; average of results

Compound	Ki [nM]
CN1C[C@@H]2CN(c3cc(C4CC4)nc(N)n3)C[C@@H]2C1 [Example 120, 4-Cyclopropyl-6-(cis-5-methyl-hexahydro-pyrrolo[3,4-c]pyrrol-2-yl)-pyrimidin-2-ylamine]	113
CNCCN(C)c1cc(C2CCOC2)nc(N)n1 (centres unmarked) [Example 197, N^4-Methyl-N^4-(2-methylamino-ethyl)-6-(tetrahydro-furan-3-yl)-pyrimidine-2,4-diamine]	204
NCCCNc1cc(C2CCOC2)nc(N)n1 (centres unmarked) [Example 196, N^4-(3-Amino-propyl)-6-(tetrahydro-furan-3-yl)-pyrimidine-2,4-diamine]	203
Nc1nc(Cc2ccsc2)cc(N2CC3CCCNC3C2)n1 (stereo not drawn) [Example 211, 4-(cis-Octahydro-pyrrolo[3,4-b]pyridin-6-yl)-6-thiophen-3-ylmethyl-pyrimidin-2-ylamine]	4
CN[C@@H]1CCN(c2cc(C3Cc4ccccc4C3)nc(N)n2)C1 [Example 164, (R)-4-Indan-2-yl-6-(3-methylamino-pyrrolidin-1-yl)-pyrimidin-2-ylamine]	4
NCCNc1cc(C2CCOC2)nc(N)n1 (centres unmarked) [Example 195, N^4-(2-Amino-ethyl)-6-(tetrahydro-furan-3-yl)-pyrimidine-2,4-diamine]	59
CC(C)c1cc(N2CCC3(CCCN3)C2)nc(N)n1 (centres unmarked) [Example 91, 4-(1,7-Diaza-spiro[4.4]non-7-yl)-6-isopropyl-pyrimidin-2-ylamine]	84
CCCCc1nc(N)nc(N2CCNCC2)c1OC [Example 101, 4-Butyl-5-methoxy-6-piperazin-1-yl-pyrimidin-2-ylamine]	30
COCc1cc(NCCN)nc(N)n1 [Example 219, N^4-(2-Amino-ethyl)-6-methoxymethyl-pyrimidine-2,4-diamine]	890
CN[C@@H]1CCN(c2cc(CC(C)C)nc(N)n2)C1 [Example 148, (R)-4-Isobutyl-6-(3-methylamino-pyrrolidin-1-yl)-pyrimidin-2-ylamine]	1
COc1c(C2CCCC2)nc(N)nc1N1CC[C@@H](N)C1 [Example 113, (R)-4-(3-Amino-pyrrolidin-1-yl)-6-cyclopentyl-5-methoxy-pyrimidin-2-ylamine]	136
Nc1nc(Cc2cccs2)cc(N2CCNCC2)n1 [Example 215, 4-piperazin-1-yl-6-thiophen-2-ylmethyl-pyrimidin-2-ylamine]	6
CCOCc1cc(N2CCNCC2)nc(N)n1 [Example 240, 4-Ethoxymethyl-6-piperazin-1-yl-pyrimidin-2-ylamine]	25
COc1c(C2CCCC2)nc(N)nc1N1CCNCC1 [Example 186, 4-Cyclopentyl-5-methoxy-6-piperazin-1-yl-pyrimidin-2-ylamine]	213
CN[C@H]1CCN(c2nc(N)nc(C3CCCC3)c2OC)C1 [Example 114, (S)-4-Cyclopentyl-5-methoxy-6-(3-methylamino-pyrrolidin-1-yl)-pyrimidin-2-ylamine]	71
Nc1nc(C2CCCC2)cc(N2CCC3(CCCN3)C2)n1 (single isomer, unassigned) [Example 258, 4-Cyclopentyl-6-(cis-1,7-diaza-spiro[4.4]non-7-yl)-pyrimidin-2-ylamine]	34
CCc1cc(N2CC[C@H](NC)C2)nc(N)n1 [Example 150, (S)-4-Ethyl-6-(3-methylamino-pyrrolidin-1-yl)-pyrimidin-2-ylamine]	85
Nc1nc(C2CCCC2)cc(N2CCC3(CCCN3)C2)n1 (single isomer, unassigned) [Example 257, 4-Cyclopentyl-6-(cis-1,7-diaza-spiro[4.4]non-7-yl)-pyrimidin-2-ylamine]	31
CCCCc1cc(N(C)CCN)nc(N)n1 [Example 138, N^4-(2-Amino-ethyl)-6-butyl-N^4-methyl-pyrimidine-2,4-diamine]	44
CN[C@@H]1CCN(c2cc(COC)nc(N)n2)C1 [Example 221, (R)-4-Methoxymethyl-6-(3-methylamino-pyrrolidin-1-yl)-pyrimidin-2-ylamine]	43
Nc1nc(C2CCCC2)cc(N2CC3NCCOC3C2)n1 (single isomer, unassigned) [Example 86, 4-Cyclopentyl-6-(trans-hexahydro-pyrrolo[3,4-b][1,4]oxazin-6-yl)-pyrimidin-2-ylamine]	56
CCCCc1cc(N2CCN(C)CC2)nc(N)n1 [Example 136, 4-Butyl-6-(4-methyl-piperazin-1-yl)-pyrimidin-2-ylamine]	1
CN[C@@H]1CCN(c2cc(Cc3ccc(Cl)cc3)nc(N)n2)C1 [Example 234, (R)-4-(4-Chloro-benzyl)-6-(3-methylamino-pyrrolidin-1-yl)-pyrimidin-2-ylamine]	18
CCCCc1nc(N)nc(N2CCCNCC2)c1OC [Example 102, 4-Butyl-6-[1,4]diazepan-1-yl-5-methoxy-pyrimidin-2-ylamine]	181
Nc1nc(CCc2ccccc2)cc(N2CCNCC2)n1 [Example 247, 4-Phenethyl-6-piperazin-1-yl-pyrimidin-2-ylamine]	3
CN[C@@H]1CCN(c2nc(N)nc3c2COCC3)C1 [Example 99, (R)-4-(3-Methylamino-pyrrolidin-1-yl)-7,8-dihydro-5H-pyrano[4,3-d]pyrimidin-2-ylamine]	214
COc1c(C2CCCC2)nc(N)nc1N1CC(N)C1 [Example 111, 4-(3-Amino-azetidin-1-yl)-6-cyclopentyl-5-methoxy-pyrimidin-2-ylamine]	33
Nc1nc(C2CCOC2)cc(N2CCCNCC2)n1 (centres unmarked) [Example 192, 4-[1,4]-Diazepan-1-yl-6-(tetrahydro-furan-3-yl)-pyrimidin-2-ylamine]	17
CN[C@@H]1CCN(c2cc(C3CC3c3ccccc3)nc(N)n2)C1 (single isomer, unassigned) [Example 256]	5
CC(C)Cc1cc(N2CCN(C)CC2)nc(N)n1 [Example 146, 4-Isobutyl-6-(4-methyl-piperazin-1-yl)-pyrimidin-2-ylamine]	3
